Assay results from patent US20080311103A1, “Anti-Inflammatory Peptides and Methods of Use Thereof” (YEDA RESEARCH AND DEVELOPMENT CO. LTD. at THE WEIZMANN …, priority 2004, published 2008).

What was measured:
[1] = tested on: T cells; experiment: Chemotaxis assay: T cell migration toward SDF-1α; type: cell-based; conditions: concentration range 10-1000 ng/ml; SDF-1α 250 ng/ml; 3 hr
Protocol: The migration of ^51-[Cr]-labeled T cells was examined in […] Transwell chemotaxis apparatus (6.5-mm diameter; Corning, N.Y.), consisting of two compartments separated by polycarbonate filters (5 μm pore size) pretreated (1 hr, 37° C.) with FN (25 μg/ml). ^51-[Cr]-labeled T cells (2×10^5 in 100 μl of RPMI containing 0.1% BSA and antibiotics), which were pre-incubated with the indicated concentrations of peptides (30 min, 37° C.), were added to the upper chambers. The bottom chambers contained 0.6 ml of the same media, with or without human Stromal cell-Derived Factor-1α (SDF-1α; 250 ng/ml). After incubation at 37° C. for 3 hr (7.5% CO2-humidified atmosphere), cells that had transmigrated into the lower wells were collected, centrifuged, and lysed (in 100 μl of distilled water containing 1 M NaOH and 0.1% Triton X-100), and the radioactivity in the resulting supernatants was determined with a γ-counter. The percentage (±SD) of cell migration was calculated as the radioactivity counts in the lysates of the lower chambers (representative of the migrating cells) divided by the total counts (representative of 2×10^5 cells).

[2] = tested on: anti-CD3 antibody induced TNFα secretion from T cells; experiment: TNFα secretion by anti-CD3 activated T cells; type: cell-based, human; conditions: peptide 100 ng/ml; 24 hours; ELISA; FIG. 7A
Protocol: Human T cells were purified and maintained in culture (RPMI containing 10% FCS, 1% Pyruvate, 1% glutamine, 1% antibiotics, 7.5% CO2, humidified atmosphere) for 15 hr before they were transferred to RPMI and activated (2 hr, 37° C.) with the indicated concentrations of the peptides. The cells were then plated (1.5×10^6 cells/0.5 ml/well) in 24 wells plates (non-tissue culture grade) precoated with anti-CD3 mAb in order to stimulate the cells to secrete cytokines. After 24 hours, the supernatants were collected and their cytokine content (TNFα and IFNγ) was determined by ELISA using anti-IFNγ and anti TNFα mAb (Pharmingen; San Diego, Calif.) according to the manufacturer's instructions.

[3] = tested on: mice sensitized with oxazolone; type: in vivo, mouse; conditions: FIG. 1; peptides by implanted osmotic pump, 0.2 μg/hour for 7 days; ear measured 24 hours after oxazolone challenge; BALB/c mice
Protocol: Groups of 5 female inbred BALB/c mice (The Jackson Laboratory, Bar Harbor, Me.) were sensitized on the shaved abdominal skin with 2% oxazolone (100 μl) dissolved in acetone/olive oil [4:1 (vol/vol)] applied topically. Delayed type hypersensitivity (DTH) was elicited 5 days later by challenging the mice with 0.5% oxazolone in acetone/olive oil (10 μl given topically to each side of the ear). A constant area of the ear was measured immediately before and 24 hours after the challenge using a Mitutoyo engineer's micrometer. The percent inhibition of DTH is calculated as follows:
% Inhibition=[1-{(treated−negative control)/(positive control−negative control)}]×100.
The positive control is the DTH reaction to oxazolone elicited in sensitized mice without treatment. The negative control is the background swelling produced by the oxazolone antigen in naïve non-sensitized mice.
Peptides Nos. 1-5 were given to the mice by mini perfusion pumps (alzet osmotic pump model 2001), which contained the indicated peptide (40 μg; 200 μl). The pumps were implanted under the mouse skin one day before oxazolone sensitization and they released the peptide in a rate of 1 μl per hour (0.2 μg/hour) for 7 days.
Peptides Nos. 6-10 were given to the mice by subcutaneously injection (1 μg or 10 μg per mouse), every day, starting at one day before oxazolone sensitization and ending at day 5 post DTH initiation.

[4] = tested on: BALB/C mice; experiment: TNBS-induced colitis model of inflammatory bowel disease (IBD); type: in vivo, mouse; conditions: 50 μg/mouse SC daily; day 7 after TNBS
Protocol: BALB/C mice, which were anesthetized for 5-10 min, received by intrarectal administration, 30 μl of a solution of 2,4,6-trinitrobenzene sulfonic acid (TNBS; 100 mg/kg) dissolved in 0.9% NaCl and mixed with an equal volume of ethanol (50% ethanol). Animals were killed 7 days after TNBS administration.
Wound fluid peptides were administered once daily by subcutaneous (SC) administration starting 1 day before the induction of colitis and every day for the next 7 days as follows:
Treatment with the wound fluid peptides was evaluated at day 7 by determination of macroscopic inflammation scores. The colon of each mouse was examined under a dissecting microscope to evaluate the macroscopic lesions according to the Wallace criteria. The Wallace score lists macroscopic colon lesions on a scale from 0 to 10 based on features reflecting inflammation, such as hyperemia, thickening of the bowel, and extent of ulceration (Wallace, J. L., et al. 1989, Gastroenterology, 96:29).

In the case of “WDNLEKETEGL [peptide No. 3, residues 96-106 of Apo A-I; identified in wound fluids, then synthesized]”, the “inhibition of T cell transmigration toward SDF-1α” value [1] is reported as “did not show a significant inhibition”, the “inhibition of anti-CD3 antibody induced TNFα secretion from T cells” value [2] is reported as 50% and the “inhibition of DTH response” value [3] is reported as ~40%. The “Wallace score (macroscopic inflammation score, scale 0 to 10)” value [4] was 4.0±1.3.
